Data as given in patent publication US20250082752A1, “COMPOUNDS, TARGETS, AND METHODS FOR MODULATING LYTIC GRANULE CONVERGENCE IN CYTOTOXIC CELLS TO PROMOTE BYSTANDER KILLING IN CELLULAR THERAPIES” (THE TRUSTEES OF COLUMBIA UNIVERSITY IN THE CITY OF NEW YORK, priority 2022, published 2025).
“Also recorded” adds a separate entry of the source.

Key:
[1] = tested on: NK cells; assay: Lytic granule dispersion in pretreated NK cells seeded on surfaces coated with activating antibodies; format: cell-based; settings: NK cells pretreated at 5 μM for 30 min
Text: FIGS. 59B-59E are magnified image of marked areas in FIG. 59A focusing on cells with dispersed granule. Perforin staining is shown in green, and alpha-tubulin is staining is shown in red.
FIGS. 60B-60E are magnified image of marked areas in FIG. 60A focusing on cells with dispersed granule. The position of the granules is indicated by perforin staining.
FIGS. 61B-61E are magnified image of marked areas in FIG. 61A focusing on cells with dispersed granule. The position of the granules is indicated by perforin staining.
NK cells were pretreated with N-{1-[(4-chlorophenyl)methyl]piperidin-4-yl}prop-2-enamide (FIG. 56) at […] for 30 min. The treated NK cells were seeded onto surfaces coated with activating antibodies.
NK cells were pretreated with 1-(prop-2-enamido)-N-[(thiophen-2-yl)methyl]cyclohexane-1-carboxamide (FIG. 57) at 5 μM for 30 min. The treated NK cells were seeded onto surfaces coated with activating antibodies.
NK cells were pretreated 1-[3-(4-fluorophenyl) prop-2-enoyl]-4-hydroxypyrrolidine-2-carboxylic acid (FIG. 58) at 5 μM for 30 min. The treated NK cells were seeded onto surfaces coated with activating antibodies.

[2] = tested on: YTS cells; assay: Lytic granule convergence/dispersion in dynein inhibitor-treated YTS cells on an activating glass surface (confocal microscopy); format: cell-based; settings: dynein inhibitor vs DMSO, activating glass surface 30 min
Procedure: (§1) YTS cells were treated with DMSO or one of three different dynein inhibitors (Ciliobrevin-D, Dynapyrazole-A, or Compound 3016) and then incubated on an activating glass surface for 30 min. Cells were fixed, stained for a-tubulin, F-actin, perforin, and DNA (DAPI), and imaged via spinning disc confocal microscopy. Examples of individual cells (top) showing all stains and a broader field (bottom) at lower magnification showing only perforin to give an impression of the degree of granule convergence in a field of cells (FIG. 10A). […] Points show mean+SD of 3 independent experiments measuring >20 cells each.
This work served as proof-of-concept that influencing positional degranulation can be used to harness the NK cell lytic machinery.
To identify the best candidates to control lytic granule positioning, a high throughput screen (HTS) for activation-induced lytic granule convergence was developed. This is a novel method that utilizes a simple shape-based approach (a grid based on the a-tubulin defined NK cell footprint and Euclidean distance from the MTOC) to generate an estimated mean granule distance (eMGD) from the MTOC (FIGS. 11A-11C). This approach allows us to quickly screen large numbers of molecular candidates. MGD will be measured in 3D in fixed NK cells activated on an anti-NKp30/anti-CD18 or anti-CD28/anti-CD18 coated glass surface over a range of activation times, conditions, and NK cell types. Cells will be stained to identify the MTOC (for example, pericentrin) and lytic granules (mature perforin). The measured MGD is an indicator of convergence.

[3] = tested on: NK cell; assay: Durability/reversibility of deconvergence after the inhibitor is removed from media; format: cell-based; settings: NK cell activation on activating glass surface at different times after removal from media
Procedure: as §1
Reversibility time for convergence is determined by activating small molecule inhibitor pre-treated NK cells on anti-NKp30/anti-CD18-coated or anti-CD28/anti-CD18 glass surfaces in the absence of the compound of interest. In short-term live-cell experiments, cells are labeled with lysotracker and fluorescent protein-conjugated tubulin; for longer term experiments, the more durable lytic granule label, LAMP1-mApple, is used. The efficiency of non-directional degranulation will be measured with the previously disclosed LAMP1-pHluorin cell line, which marks the lytic granule pH change that accompanies degranulation. […]

[4] = tested on: NK cell; settings: previous work, cited from earlier work
[5] = tested on: YTS cells; assay: Golgi fragmentation and granule dispersion in LPA-stimulated YTS cells; format: cell-based; settings: 20 μM LPA for two hours, sodium salt
Procedure: One way to induce the Golgi outpost formation through elongation and fission, is using LPA, which is predicted to activate a pathway dependent on transforming protein RhoA and effectively induce the formation of Golgi Outpost. […] The cells were also tested for Cr-51 (FIG. 14C). […] This dispersion was thus increased in quantity and spread on the GCC2 KO cells.

[6] = tested on: bystander K562 cells; assay: Bystander killing by Dynapyrazole A-pretreated YTS cells; format: cell-based; settings: YTS cells pretreated with 5 μM for 30 minutes
Text: The graph is representative of three independently performed biological repeats.
To assess tumor cell and bystander killing, TheCOS comprises NK cell lines, tumor cell targets, and NK-resistant tumor cell bystanders. LAMP1-mApple-pHluorin-expressing NK cell lines enable visualization of granules (mApple) and degranulation events (pHluorin transition). mTurquoise2 mark susceptible tumor cells, and Citrine mark bystander cells. SYTOX deep red is included in the hydrogel to identify the nuclei of dying cells. A cell positive for Turquoise and SYTOX fluorescence denote a dying tumor cell, whereas a cell positive for Citrine and SYTOX indicate a dying bystander cell. 1×10^5 target tumor cells and 1×10^5 NK cells (for an initial 1:1 tumor to effector ratio)+/−1×10^6 bystander cells are deposited into separate thermally responsive hydrogel layers and then encased in thermally stable hydrogel. This sandwich is then deposited the into our imaging chamber. Prewarmed media is added to collapse the hydrogel layers.
(§2) YTS cells are treated with 5 μM of Dynapyrazole A for 30 minutes, then washed twice with culture media. Then cells are stimulated either with 721.221 target cells, K562 target cells, or with an activating surface (coverslip coated with anti CD18 and/or anti CD28).

[7] = tested on: YTS cells; assay: Mean granule distance (MGD) and automated estimated MGD (eMGD) from the MTOC in activated YTS cells; format: cell-based; settings: YTS cells activated on glass via CD18/CD28 for 30 minutes, p<0.01
Text: FIGS. 11A-11H depict exemplary results related to mean granule distance (MGD) and automated estimated mean granule distance (eMGD). FIG. 11A depicts an exemplary high-resolution confocal imaging of lytic granules (labeled by perforin) and tubulin, which allows for automated intensity threshold-based identification of granules as shown in FIG. 11B (outlines indicate for granules and the microtubule-organizing center (MTOC)). FIG. 11C depicts the equation for calculating […] using x and y coordinates of each granule relative to the MTOC. […] FIG. 11E is an exemplary image of a fixed NK cell from the screen (labeled with perforin and tubulin) to which the Euclidean method for assessing granule localization relative to a total cell, tubulin-defined footprint of FIG. 11F can be applied. eMGD is then calculated using a Matlab script and the formula shown in FIG. 11G. […]
To identify the best candidates to control lytic granule positioning, a high throughput screen (HTS) for activation-induced lytic granule convergence was developed. […] MGD will be measured in 3D in fixed NK cells activated on an anti-NKp30/anti-CD18 or anti-CD28/anti-CD18 coated glass surface over a range of activation times, conditions, and NK cell types. […] The measured MGD is an indicator of convergence. […]

[8] = tested on: YTS cells; assay: Granule distance to MTOC in Dynapyrazole A-treated YTS cells on a CD28/CD18 activating surface; format: cell-based; settings: 5 μM for 30 minutes, washed
Procedure: as §2

C=CC(=O)NC1CCN(Cc2ccc(Cl)cc2)CC1 [Compound 5814, N-{1-[(4-chlorophenyl)methyl]piperidin-4-yl}prop-2-enamide]
lytic granule dispersion [1]: induce lytic granule dispersion; also recorded: lytic granule dispersion induced

O=C(O)C1CC(O)CN1C(=O)C=Cc1ccc(F)cc1 (stereo not shown) [Compound 3977, 1-[3-(4-fluorophenyl)prop-2-enoyl]-4-hydroxypyrrolidine-2-carboxylic acid]
lytic granule dispersion [1]: induce lytic granule dispersion; also recorded: lytic granule dispersion induced

N#CC(C(=O)c1ccc(Cl)cc1Cl)=C1NC(=O)c2ccc(Cl)cc2N1 [Ciliobrevin D, 2-(7-chloro-4-oxo-3,4-dihydroquinazolin-2 (1H)-ylidene)-3-(2,4-dichlorophenyl)-3-oxopropanenitrile]
lytic granule convergence / dispersion [2]: lytic granule dispersion | lytic granule convergence / dispersion ([2]; listed as CIL-D): highly effective in preventing lytic granule convergence | durability of deconvergence after inhibitor removed from media [3]: Neither inhibitor, however, promotes sustained deconvergence | durability of deconvergence after inhibitor removed from media ([3]; listed as CIL-D): quickly reversible | killing of bystander cells ([4]; UGATm and other single cell assays): promoted killing of bystander cells | inhibition of lytic granule convergence (previously used) [4]: inhibit lytic granule convergence

1-Oleoyl lysophosphatidic acid sodium salt [LPA]
Golgi fragmentation [5]: increase in Golgi fragments; also recorded: Golgi fragmentation | granule dispersion / convergence [5]: blocks convergence; also recorded: granule dispersion

C=CC(=O)NC1(C(=O)NCc2cccs2)CCCCC1 [Compound 7779, 1-(prop-2-enamido)-N-[(thiophen-2-yl)methyl]cyclohexane-1-carboxamide]
lytic granule dispersion [1]: induce lytic granule dispersion; also recorded: lytic granule dispersion induced

N#Cc1c(C2(c3ccc(Cl)cc3)CC2)nn2c1[nH]c(=O)c1cc(I)ccc12 [Dynapyrazole A, 2-[1-(4-Chlorophenyl)cyclopropyl]-4,5-dihydro-7-iodo-5-oxopyrazolo[1,5-a]quinazoline-3-carbonitrile]
killing of bystander K562 cells [6]: kill bystander K562 cells | killing of bystander K562 cells ([6]; listed as Dynapyrazole-A): kill bystander K652 cells | estimated mean granule distance (eMGD), change vs DMSO ([7]; GE InCell Analyzer): Increase | mean granule distance (MGD), change vs DMSO ([7]; confocal microscope): Increase | lytic granule convergence / dispersion ([2]; listed as Dynapyrazole-A): lytic granule dispersion | lytic granule convergence / dispersion ([2]; listed as dynapyrazole-A): highly effective in preventing lytic granule convergence | lytic granule dispersion (granule distance to MTOC) [8]: induces lytic granule dispersion | lytic granule dispersion (granule distance to MTOC) ([8]; listed as Dynapyrazole-A): high lytic granule dispersion
